The numbers were not newly measured in US20080187998A1, “Sulfonamide-based oligomers and polymers for destabilization of biological membranes” (UNIVERSITY OF UTAH RESEARCH FOUNDATION, priority 2007, published 2008), which cites them from elsewhere.

The pKa is the pH at which an ionisable group is half protonated.

For the series the following is noted: monomeric sulfonamide.
For the compound `Nc1ccc(S(=O)(=O)Nc2ncccn2)cc1` [SDZ, sulfadiazine], the pKa is 6.4-6.5. In the case of `Cc1ccnc(NS(=O)(=O)c2ccc(N)cc2)n1` [sulfamerazine], the pKa was 7.0.

On to `COc1cc(NS(=O)(=O)c2ccc(N)cc2)nc(OC)n1` [SDM, sulfadimethoxine], for which the pKa is on record as 6.1. On to `Cc1nnc(NS(=O)(=O)c2ccc(N)cc2)s1` [SMT, sulfamethizole], for which the pKa is listed as 5.45.
